This experiment has as its target human, KCNT1 (Homo sapiens (Human), UniProt Q5JUK3). The experiment can be described thus: FLIPR Tl/K Flux Assay. Conditions: HEK293 cells stably expressing human KCNT1; Tl+ flux stimulated with EC80 of agonist Loxapine. Format: cell-based. The essentials:
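HEK293 cells stably expressing human KCNT1 were loaded with FLIPR potassium dye in HEPES/HBSS pH 7.4 with 5 mM probenecid, 1 h at 25 °C, then given test compound for 30 min at 25 °C. Tl+ flux was triggered with chloride-free buffer containing Tl+ and EC80 loxapine and read 160 s. IC50 came from Hill fits of % inhibition.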
Sequence of human, KCNT1 (Q5JUK3 whole entry): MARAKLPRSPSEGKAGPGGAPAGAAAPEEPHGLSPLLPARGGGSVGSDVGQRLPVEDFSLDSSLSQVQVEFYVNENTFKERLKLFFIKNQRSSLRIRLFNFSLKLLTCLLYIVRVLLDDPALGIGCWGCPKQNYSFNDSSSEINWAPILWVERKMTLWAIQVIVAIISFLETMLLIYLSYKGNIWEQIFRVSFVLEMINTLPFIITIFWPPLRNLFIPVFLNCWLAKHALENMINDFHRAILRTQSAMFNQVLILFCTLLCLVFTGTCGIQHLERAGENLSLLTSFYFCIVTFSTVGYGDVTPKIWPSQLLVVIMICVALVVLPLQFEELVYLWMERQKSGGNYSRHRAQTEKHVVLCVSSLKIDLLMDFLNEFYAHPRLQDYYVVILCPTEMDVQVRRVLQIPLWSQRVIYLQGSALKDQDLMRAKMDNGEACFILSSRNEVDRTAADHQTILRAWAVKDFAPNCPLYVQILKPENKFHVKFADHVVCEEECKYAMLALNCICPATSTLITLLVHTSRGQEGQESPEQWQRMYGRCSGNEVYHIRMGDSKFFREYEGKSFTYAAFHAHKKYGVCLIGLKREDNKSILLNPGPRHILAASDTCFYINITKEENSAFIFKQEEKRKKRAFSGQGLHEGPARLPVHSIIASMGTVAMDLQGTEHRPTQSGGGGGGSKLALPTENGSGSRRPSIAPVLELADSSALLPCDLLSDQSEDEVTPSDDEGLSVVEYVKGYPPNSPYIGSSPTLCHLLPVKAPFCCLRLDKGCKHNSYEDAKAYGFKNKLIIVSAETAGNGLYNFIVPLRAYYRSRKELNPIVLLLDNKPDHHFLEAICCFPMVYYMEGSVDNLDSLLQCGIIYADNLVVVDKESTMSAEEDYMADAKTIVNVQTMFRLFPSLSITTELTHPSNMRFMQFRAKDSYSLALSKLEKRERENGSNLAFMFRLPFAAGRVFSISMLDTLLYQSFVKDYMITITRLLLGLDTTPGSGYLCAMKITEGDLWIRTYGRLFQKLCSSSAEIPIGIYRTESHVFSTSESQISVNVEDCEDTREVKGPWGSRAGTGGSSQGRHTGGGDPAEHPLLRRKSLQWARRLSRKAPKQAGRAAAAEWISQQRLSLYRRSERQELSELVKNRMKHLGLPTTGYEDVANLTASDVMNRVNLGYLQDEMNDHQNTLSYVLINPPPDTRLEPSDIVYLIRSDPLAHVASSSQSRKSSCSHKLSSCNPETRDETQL
The term IC50 denotes the concentration at which inhibition is half-maximal. A lower IC50 goes with inhibition by little substance. `Cn1nc(C(F)(F)F)cc1C(=O)N[C@H]1CCc2nc(-c3ccnc(C(F)(F)F)c3)ccc21` [Compound I-134a, (S)-1-Methyl-3-(trifluoromethyl)-N-(2-(2-(trifluoromethyl)pyridin-4-yl)-6,7-dihydro-5H-cyclopenta[b]pyridin-5-yl)-1H-pyrazole-5-carboxamide] yielded an IC50 of under 250 nM.
As for `Cc1nc(C(F)(F)F)oc1C(=O)N[C@H]1CCCn2nc(-c3ccnc(C(F)(F)F)c3)nc21` [Compound I-216a, (S)-4-Methyl-2-(trifluoromethyl)-N-(2-(2-(trifluoromethyl)pyridin-4-yl)-5,6,7,8-tetrahydro-[1,2,4]triazolo[1,5-a]pyridin-8-yl)oxazole-5-carboxamide], the IC50 was under 250 nM.
To `Cn1nc(C(F)(F)F)cc1CC(=O)N[C@H]1CCCc2nn(-c3ccnc(C(F)(F)F)c3)cc21` [Compound I-53a, (S)-2-(1-Methyl-3-(trifluoromethyl)-1H-pyrazol-5-yl)-N-(2-(2-(trifluoromethyl)pyridin-4-yl)-4,5,6,7-tetrahydro-2H-indazol-4-yl)acetamide] belongs over 1000 nM; to `CCn1nc(C(F)(F)F)cc1C(=O)NC1CCCc2nn(-c3ccnc(C(F)(F)F)c3)cc21` (racemic) [Compound I-7, (rac)-1-Ethyl-3-(trifluoromethyl)-N-(2-(2-(trifluoromethyl)pyridin-4-yl)-4,5,6,7-tetrahydro-2H-indazol-4-yl)-1H-pyrazole-5-carboxamide], under 250 nM.
For “(S)—N-(2-(2-Cyclopropyl-5-fluoropyridin-4-yl)-5,6-dihydro-4H-pyrrolo[1,2-b]pyrazol-4-yl)-1-methyl-3-(trifluoromethyl)-1H-pyrazole-5-carboxamide [Compound I-154a]”, the IC50 was under 250 nM.
Compound `Cn1nc(C(C)(F)F)cc1C(=O)N[C@H]1CCCn2nc(-c3ccnc(C(F)(F)F)c3)cc21` [Compound I-363a] returned an IC50 of under 250 nM.
The compound `Cn1nc(C(F)(F)F)cc1C(=O)N[C@H]1CCCc2oc(-c3cc(C4CC4)ncc3F)nc21` [Compound I-217a, (S)-N-(2-(2-Cyclopropyl-5-fluoropyridin-4-yl)-4,5,6,7-tetrahydrobenzo[d]oxazol-4-yl)-1-methyl-3-(trifluoromethyl)-1H-pyrazole-5-carboxamide] gave an IC50 of under 250 nM.
To `O=C(N[C@H]1CCCn2nc(-c3ccnc(C(F)(F)F)c3)cc21)c1cn(C(F)(F)F)nc1C(F)(F)F` [Compound I-338a, (S)-1,3-bis(trifluoromethyl)-N-(2-(2-(trifluoromethyl)pyridin-4-yl)-4,5,6,7-tetrahydropyrazolo[1,5-a]pyridin-4-yl)-1H-pyrazole-4-carboxamide] belongs under 250 nM.
For `Cn1nc(C2CC2)nc1C(=O)N[C@H]1CCn2nc(-c3ccnc(C(F)(F)F)c3)cc21` [Compound I-224a, (S)-3-Cyclopropyl-1-methyl-N-(2-(2-(trifluoromethyl)pyridin-4-yl)-5,6-dihydro-4H-pyrrolo[1,2-b]pyrazol-4-yl)-1H-1,2,4-triazole-5-carboxamide], the IC50 is under 250 nM.
To `O=C(N[C@H]1CCc2nn(-c3ccnc(C(F)(F)F)c3)cc21)c1cc(F)cc(F)c1` [Compound I-100a] belongs under 250 nM; to `N#Cc1cccc(C(=O)N[C@H]2CCCCn3nc(-c4ccnc(C(F)(F)F)c4)cc32)c1` [Compound I-443a], under 250 nM; to `COc1cc(-c2cc3n(n2)CCC[C@@H]3NC(=O)c2cc(C(F)(F)F)ccn2)ccn1` [Compound I-365a], 250 to 500 nM.
To `O=C(N[C@H]1CCc2nn(-c3ccnc(C(F)(F)F)c3)cc21)C1CCC(F)(F)CC1` [Compound I-106a] belongs under 250 nM; to `N#Cc1cc(F)cc(C(=O)N[C@H]2CCCCn3nc(-c4ccnc(C(F)(F)F)c4)cc32)c1` [Compound I-319a, (S)-3-Cyano-5-fluoro-N-(2-(2-(trifluoromethyl)pyridin-4-yl)-5,6,7,8-tetrahydro-4H-pyrazolo[1,5-a]azepin-4-yl)benzamide], under 250 nM; to `Cc1c(C(F)(F)F)nn(C)c1C(=O)N[C@H]1CCc2nn(-c3ccnc(C(F)(F)F)c3)cc21` [Compound I-386a], over 1000 nM.
`Cn1nc(C(F)(F)F)cc1C(=O)N[C@H]1CCc2nn(-c3ccnc(C(C)(F)F)c3)cc21` [Compound I-77a, (S)—N-(2-(2-(1,1-Difluoroethyl)pyridin-4-yl)-2,4,5,6-tetrahydrocyclopenta[c]pyrazol-4-yl)-1-methyl-3-(trifluoromethyl)-1H-pyrazole-5-carboxamide] yielded an IC50 of under 250 nM.
Compound `O=C(N[C@H]1CCCn2nc(-c3ccnc(C(F)(F)F)c3)cc21)c1ccc(F)c(OC(F)(F)F)c1` [Compound I-411a] yielded an IC50 of under 250 nM.
For `O=C(NC1CCCc2nn(-c3ccnc(C(F)(F)F)c3)cc21)c1ccccn1` (racemic) [Compound I-31, (rac)-N-(2-(2-(Trifluoromethyl)pyridin-4-yl)-4,5,6,7-tetrahydro-2H-indazol-4-yl)picolinamide] the value was over 1000 nM; for `N#Cc1cccc(C(=O)N[C@H]2CCn3nc(-c4ccnc(C5CC5)c4)cc32)c1` [Compound I-310a, (S)-3-Cyano-N-(2-(2-cyclopropylpyridin-4-yl)-5,6-dihydro-4H-pyrrolo[1,2-b]pyrazol-4-yl)benzamide], under 250 nM.
The compound `Cn1nc(C(F)(F)F)nc1C(=O)N[C@H]1CCn2nc(-c3cc(C(F)(F)F)ncc3F)cc21` [Compound I-548a, (S)—N-(2-(5-Fluoro-2-(trifluoromethyl)pyridin-4-yl)-5,6-dihydro-4H-pyrrolo[1,2-b]pyrazol-4-yl)-1-methyl-3-(trifluoromethyl)-1H-1,2,4-triazole-5-carboxamide] came in with an IC50 of under 250 nM.
For `CC(C)(C)CC(=O)N[C@@H]1CCc2nn(-c3ccnc(C(F)(F)F)c3)cc21` [Compound I-103b] the value was over 1000 nM; for `Cn1nc(C(F)(F)F)cc1C(=O)N[C@H]1CCCc2nc(-c3ccnc(C4CC4)c3)oc21` [Compound I-180a, (S)-N-(2-(2-Cyclopropylpyridin-4-yl)-4,5,6,7-tetrahydrobenzo[d]oxazol-7-yl)-1-methyl-3-(trifluoromethyl)-1H-pyrazole-5-carboxamide], under 250 nM.
To `Cc1cc(C)cc(C(=O)N[C@H]2CCc3nn(-c4ccnc(C(F)(F)F)c4)cc32)c1` [Compound I-372a] belongs under 250 nM.
For `Cc1cc(C(=O)N[C@H]2CCCn3nc(-c4ccnc(C(F)(F)F)c4)cc32)cc(C)n1` [Compound I-414a] the value was under 250 nM; for `Cn1nc(C(F)F)cc1C(=O)N[C@H]1CCCn2nc(-c3ccnc(C(F)(F)F)c3)cc21` [Compound I-348a], under 250 nM; for `Cn1nc(-c2ccccc2)cc1C(=O)N[C@H]1CCCn2nc(-c3ccnc(C(F)(F)F)c3)cc21` [Compound I-351a], under 250 nM.
In turn, `Cn1nc(C(F)(F)F)cc1C(=O)N[C@H]1CCCn2nc(-c3ccnc(C(C)(F)F)c3)cc21` [Compound I-379a] yielded an IC50 of under 250 nM.
Compound `COc1cc(-c2cc3n(n2)CC[C@@H]3NC(=O)c2cc(C(F)(F)F)nn2C)ccn1` [Compound I-427a] showed an IC50 of under 250 nM.
To `Cc1cccc(C(=O)NC2CCCc3nn(-c4ccnc(C(F)(F)F)c4)cc32)c1` (racemic) [Compound I-17, (rac)-3-Methyl-N-(2-(2-(trifluoromethyl)pyridin-4-yl)-4,5,6,7-tetrahydro-2H-indazol-4-yl)benzamide] belongs under 250 nM.
As for `CC(C)n1cnc(C(=O)N[C@H]2CCCn3nc(-c4ccnc(C(F)(F)F)c4)cc32)n1` [Compound I-412a], the half-inhibitory concentration (IC50) is over 1000 nM.
Turning to `N#Cc1ccc(C(=O)N[C@H]2CCCn3nc(-c4ccnc(C(F)(F)F)c4)cc32)cc1` [Compound I-349a], the IC50 was under 250 nM.
`COc1cc(-c2cc3n(n2)CC[C@@H]3NC(=O)c2cc(C(F)(F)F)nn2C)c(C(F)(F)F)cn1` [Compound I-172a, (S)-N-(2-(2-Methoxy-5-(trifluoromethyl)pyridin-4-yl)-5,6-dihydro-4H-pyrrolo[1,2-b]pyrazol-4-yl)-1-methyl-3-(trifluoromethyl)-1H-pyrazole-5-carboxamide] had an IC50 of under 250 nM.
Compound `CCOc1cc(-n2cc3c(n2)CCCC3NC(=O)c2cc(C)cc(C(F)(F)F)c2)ccn1` (racemic) [Compound I-15, (rac)-N-(2-(2-Ethoxypyridin-4-yl)-4,5,6,7-tetrahydro-2H-indazol-4-yl)-3-methyl-5-(trifluoromethyl)benzamide] had an IC50 of under 250 nM.
Compound `COc1cc(-c2nc3c(o2)CCC[C@@H]3NC(=O)c2cc(C)cc(C(F)(F)F)c2)ccn1` [Compound I-248a] came in with an IC50 of under 250 nM.
For `Cn1nc(CC#N)cc1C(=O)N[C@H]1CCCc2nn(-c3ccnc(C(F)(F)F)c3)cc21` [Compound I-3a] the value was 500 to 1000 nM; for `N#Cc1c(C(=O)N[C@H]2CCCn3nc(-c4ccnc(C(F)(F)F)c4)cc32)ncn1CC(F)(F)F` [Compound I-425a], over 1000 nM; for `N#Cc1cc(OC(F)(F)F)cc(C(=O)N[C@H]2CCCn3nc(-c4ccnc(C(F)(F)F)c4)cc32)c1` [Compound I-404a], under 250 nM.
For `O=C(N[C@H]1CCc2cnc(-c3ccnc(C(F)(F)F)c3)cc21)c1cncc(C(F)(F)F)n1` [Compound I-197a, (S)-6-(trifluoromethyl)-N-(3-(2-(trifluoromethyl)pyridin-4-yl)-6,7-dihydro-5H-cyclopenta[c]pyridin-5-yl)pyrazine-2-carboxamide] the value was over 1000 nM; for `CCOc1cc(-n2cc3c(n2)CCCC3NC(=O)c2cc(C(F)(F)F)ccc2C)ccn1` (racemic) [Compound I-28, (rac)-N-(2-(2-Ethoxypyridin-4-yl)-4,5,6,7-tetrahydro-2H-indazol-4-yl)-2-methyl-5-(trifluoromethyl)benzamide], 250 to 500 nM; for `Cc1c(-n2cc3c(n2)CCC[C@@H]3NC(=O)c2cc(C(F)(F)F)nn2C)ccnc1C(F)(F)F` [Compound I-359a], under 250 nM.

For the origin of these results see patent US20250313548A1 (Actio Biosciences, Inc., priority 2023, published 2025).
